Test results as given in patent US8648047B2, “Methods and compositions for inhibition of multi-drug resistance by hyaluronan oligomers” (Tufts University, priority 2002, dated 2014).

What was measured:
[1] = system: MCF-7/Adr drug-resistant human mammary carcinoma cells; assay: Drug resistance, viable cell number (Coulter Counter); format: cell-based; conditions: MCF-7/Adr; decoys introduced by adenovirus infection, or siRNA (FIG. 18)
Protocol: FIG. 15A is a line graph showing that MCF-7/Adr drug-resistant human mammary carcinoma cells grown in culture with hyaluronan oligomers are sensitized to doxorubicin. MCF-7/Adr cells were obtained from MCF-7 cells by being selected for drug resistance by exposure to doxorubicin. Cells were grown for 24 h in 24-well plates in RPMI 1640 medium containing Glutamex 1 plus 10% fetal bovine serum at 37° in 5% CO2. Various concentrations of doxorubicin (doxo) were then added and the cells incubated for another 72 h, followed by a further 24 h in the presence or absence of 100 μg/ml hyaluronan oligomers (o-HA). The oligomers were a mixed population of 3-8 repeating disaccharides in length. The cells were then harvested and the number of viable cells was determined in a Coulter Counter.
FIG. 18 is a set of line graphs showing a resulting cell number, on the ordinate, following drug treatment with doxorubicin, concentration (log) in nM on the abscissa, showing restoration of drug sensitivity (inhibition of drug resistance) by HA oligomers, soluble hyaluronan-binding decoys, and CD44 siRNA, using derivatives of MCF-7 cells as in FIG. 17 above.
Therefore, the effect of co-treatment with hyaluronan oligomers on drug resistance was examined in an established system, i.e. MCF-7/Adr human mammary carcinoma cells that have been selected for resistance to doxorubicin (Fairchild, C. R., et al., Cancer Res 47, 5141-8, 1987). First, the effect of hyaluronan oligomers on resistance to doxorubicin in the MCF-7/Adr cells versus the relatively drug-sensitive, parental MCF-7 cell line was compared.

[2] = system: TA3/St murine mammary carcinoma cells; conditions: soft agar; TA3/St transfectant clones over-expressing the protein; cited from earlier work
[3] = system: TA3/St murine mammary carcinoma cells; assay: Proliferation in monolayer (anchorage-dependent) culture; format: cell-based, mouse; conditions: 100-150 μg/ml
[4] = system: α-isoform of PI3 kinase in HCT116 cells; assay: PI3 kinase α isoform assay (immunoprecipitated); format: cell-based, human; conditions: same reagents as FIG. 5D
[5] = system: caspase-3 activity in HCT116 human colon carcinoma cells; assay: Caspase-3 assay; format: cell-based; conditions: HCT116, 150 μg/ml
Protocol: (§1) Treatment of tumor cells and preparation of cell lysates for biochemical assays. TA3/St and HCT116 cells were grown for 72 hours in 14 cm culture dishes, then harvested by trypsinization, washed in PBS and suspended in DMEM containing 10% FBS. Two million cells from these cultures were added to each well of non-adherent, Ultra-low cluster plates and incubated in suspension at 37° C. for a further 72 hours. The cells from each well were then collected, washed in PBS, suspended in 5 ml DMEM medium containing 2% bovine serum albumin (Cohn Analog, Sigma), re-plated in the cluster plates, and incubated in suspension at 37° C. for 96 hours; similar results were obtained with pre-incubations of 24-96 hours for most measurements. The hyaluronan oligomers or other reagents were then added and the cells incubated for another 24 hours in suspension.
The cells treated as above were harvested by centrifugation at room temperature. The pellets were washed twice in PBS, then lysed in buffer containing 1% Nonidet P-40 and protease inhibitors. Cell lysis was achieved by vortexing for three cycles of 15 sec at high speed followed by cooling on ice. The lysate was centrifuged at 12,000×g for 15 min at 4° C. in an Eppendorf 5415R centrifuge. After measuring the protein content of the supernatant, it was flash-frozen in liquid nitrogen and stored at −80° C. until use in the assays below.
Caspase-3 assay. […]

[6] = system: caspase-3 activity in TA3/St murine mammary carcinoma cells; assay: Caspase-3 assay; format: cell-based, mouse; conditions: 150 μg/ml
Protocol: FIG. 4A is a bar graph showing stimulation of caspase-3 activity in TA3/St murine mammary carcinoma cells by hyaluronan oligomers. Cells were grown in suspension in serum-free medium for 24 hours in the presence of 10, 50 or 150 μg/ml hyaluronan oligomers (o-HA), 150 μg/ml chondroitin sulfate (CS), or 20 μM LY294002 (LY), a specific inhibitor of mammalian PI3 kinase, and then analyzed for caspase-3 activity. Results are presented as the mean of specific activity (absorbance at 405 nm/mg/90 min)±S.D. for three independent experiments.
as §1, with “suspension. […]” for “suspension.”

PTEN in TA3/St cells = assay: PTEN expression, immunoblotting; format: cell-based, mouse; conditions: similar amounts (150 μg/ml) of controls
Protocol: FIG. 8A is a bar graph showing stimulation of expression of PTEN, a tumor suppressor, by HA-oligomers, in TA3/St murine mammary carcinoma cells. Cells were treated in suspension and then processed for immunoblotting of PTEN. The bars represent densitometric quantification of immunoblots after treatment with 10-150 μg/ml hyaluronan oligomers (o-HA) or 150 μg/ml chondroitin sulfate (CS). Results are presented as means of three independent experiments and expressed as percent untreated±S.D.
FIG. 8C is an immunoblot using TA3/St murine mammary carcinoma cells treated as in lanes: 1. untreated; 2. 150 μg/ml chondroitin sulfate; 3. 150 μg/ml chitin oligomers; 4. 150 μg/ml hyaluronan polymer (mol. wt. ˜80 kDa); 5. 50 μg/ml hyaluronan oligomers; 6. 150 μg/ml hyaluronan oligomers. Results are representative of three experiments. Similar results to FIG. 8C were obtained also with HCT116 cells.
PTEN levels in TA3/St mouse mammary carcinoma cells were measured by Western blotting; values were obtained by scanning the blots. HA oligomers (oligo) at 50-100 μg/ml caused ˜6-fold increase in PTEN levels compared to untreated control. […]
(§2) Immunoblotting. […] Immunoreactive bands were detected by enhanced chemiluminescence and the sizes of proteins were estimated using prestained molecular weight standards. Immunoreactive bands were quantified by densitometry. […]

[7] = system: α-isoform of PI3 kinase in TA3/St cells; assay: PI3 kinase α isoform assay (immunoprecipitated); format: cell-based, mouse; conditions: 150 μg/ml polysaccharide controls, 50 nM wortmannin
Protocol: PI3 kinase assay. For assay of total PI3 kinase, 250 ng of cell lysate protein were used per assay. Assays were performed in a 50 μl reaction mixture containing 0.001% Nonidet P-40, 159 μM ATP, 25 mM MgCl2, 5 mM EGTA, 150 μM ATP, 25 μCi of [γ-^32P] ATP, 125 mM MOPS, pH 7.0, and 0.2 mg/ml sonicated lipids containing phosphatidyl serine, phosphatidyl inositol and phosphatidyl inositol-4,5 bisphosphate in a 1:1:1 (v:v:v) ratio in sonication buffer (25 mM MOPS, pH 7.0, 1 mm EGTA) (Whitman, M. et al (1985) Nature 315, 239-242; Susa, M., et al. (1992) J Biol Chem 267, 22951-22956; Misra, S., et al. (1998) J Biol Chem 273, 26638-26644). The reactions were carried out at 37° C. for 20 min and stopped by addition of 100 μl of CH3OH/1M HCl (1:1). […] The organic layers were combined, dried under nitrogen, and analyzed by thin layer chromatography. ^32P-labeled phosphoinositides were resolved in water:acetic acid:n-propanol (34:1:65) and detected by autoradiography. ^32P incorporation into phosphatidylinositol 3,4,5-phosphate (PIP3) was quantified by liquid scintillation counting of thin layer chromatography spots scraped into and eluted in scintillation fluid.
For assay of specific PI3 kinase isoforms, whole cell lysates were incubated with antibody against the particular isoform plus protein A-Sepharose. PI3 kinase activity of the enzyme immobilized on beads was then measured as described above.

[8] = system: phosphorylated Akt in TA3/St cells; assay: Akt phosphorylation, Western blotting; format: cell-based, mouse; conditions: 150 μg/ml controls, 1:50 antibody to CD44 (FIG. 6C)
Protocol: FIG. 6A is a bar graph showing inhibition of Akt phosphorylation by hyaluronan oligomers in TA3/St murine mammary carcinoma cells treated in suspension with 1-150 μg/ml hyaluronan oligomers (o-HA) or 150 μg/mlchondroitin sulfate (CS). Cell lysates were then analyzed by Western blotting for phosphorylated Akt and quantified by densitometry. Results in A and B are presented as means of three independent experiments and expressed as percent untreated±S.D.
FIG. 6C is a representation of a Western blot of phosphorylated Akt from TA3/St cells: 1. untreated; 2. 150 μg/ml chondroitin sulfate; 3. 150 μg/ml hyaluronan polymer (mol. wt. ˜80 kDa); 4. 150 μg/ml chitin oligomers; 5. 50 μg/ml hyaluronan oligomers; 6. 150 μg/ml hyaluronan oligomers; 7. 50 nM wortmannin; 8. 20 μM LY294002; 9. 1:50 dilution of antibody against CD44. Results are representative of three experiments. Similar results to those in FIG. 6C were obtained also with HCT116 cells.
(§3) Treatment of tumor cells and preparation of cell lysates for biochemical assays. TA3/St and HCT116 cells were grown for 72 hours in 14 cm culture dishes, then harvested by trypsinization, washed in PBS and suspended in DMEM containing 10% FBS. […]
as §2

[9] = system: TA3/St murine mammary carcinoma cells; assay: Apoptosis assay in suspension culture; format: cell-based, mouse; conditions: 24 hours in suspension; 150 μg/ml controls, 50 nM wortmannin
Protocol: FIG. 3 is a bar graph showing induction of apoptosis by hyaluronan oligomers under anchorage-independent conditions. TA3/St murine mammary carcinoma cells were grown in suspension in serum-free medium for 24 hours in the presence of 50 or 150 μg/ml hyaluronan oligomers (o-HA), 150 μg/ml of ˜80 kDa molecular weight hyaluronan polymer (HA-80), 150 μg/ml chitin oligomers, 150 μg/ml chondroitin sulfate (CS), or 50 nM wortmannin (WM), a specific inhibitor of mammalian PI3 kinase (phosphoinositide 3-kinase). Apoptotic cells were then analyzed and counted as described in the EXAMPLES section. Results represent the average of two experiments and are expressed as percentage of total cells±range.
as §3, with “FBS. Two million cells from these cultures were added to each well of non-adherent, Ultra-low cluster plates and incubated in suspension at 37° C. for a further 72 hours.” for “FBS.”
Apoptosis assay. […] Viable cells (green) and apoptotic cells containing fragmented nuclei (red) were counted and the percentage of apoptotic cells was then calculated.

soluble CD44: hyaluronan-binding decoy, over-expressed in cells by transfection or adenovirus
reversal of doxorubicin resistance [1]: reversed
inhibition of anchorage-independent growth [2]: effective inhibitor
effect on proliferation [3]: Neither HA oligomers nor soluble CD44 significantly affect proliferation

chondroitin sulfate
effect on PI3 kinase-α activity [4]: Neither hyaluronan polymer, nor chondroitin sulfate, nor chitin oligomers had a significant effect
effect on caspase-3 activity [5]: no significant effect
effect on caspase-3 activity [6]: no significant effect
effect on PTEN levels (PTEN in TA3/St cells): do not stimulate PTEN levels
effect on PTEN levels (PTEN in TA3/St cells; listed as Chondroitin sulfate (CS)): did not increase PTEN levels
effect on PI3 kinase-α activity ([7]; 20 μM LY294002, 1:50 antibody to CD44): Neither hyaluronan polymer, nor chondroitin sulfate, nor chitin oligomers had a significant effect
effect on PI3 kinase-α activity ([7]; 20 μM LY294002, 1:50 antibody to CD44, listed as chondroitin sulfate (CS)): had no effect
effect on phosphorylation of Akt [8]: not caused
effect on apoptosis [9]: do not have significant effects
